Laboratory results taken from paper PMC5423902, “CXCL9-Derived Peptides Differentially Inhibit Neutrophil Migration In Vivo through Interference with Glycosaminoglycan Interactions” (Frontiers in Immunology, 2017).

Legend:
[1] = system: CXCL8-induced neutrophil migration; experiment: CXCL8-induced neutrophil migration to the knee cavity; format: in vivo, mouse (C57BL/6); conditions: 66 µg peptide i.v., 1 µg CXCL8 intra-articular, C57BL/6, 3 h, n ≥ 5, Figure 5
Procedure: In vivo neutrophil extravasation to the peritoneal or the knee cavity was examined, respectively, by intraperitoneal or intra-articular injection, of endotoxin-free recombinant CXCL8(1-77) (PeproTech) or vehicle (PBS) in female NMRI or C57BL/6 mice, as described previously ([42], [48]). Simultaneously, synthetic CXCL9 peptide was co-injected either intraperitoneally or injected intravenously. After 2 h (peritoneal cavity) or 3 h (knee cavity), mice were sacrificed. The peritoneal cavity was washed with saline enriched with 2% FCS and 20 U/ml heparin and total leukocyte counts were determined. For the preparation of cytospins, 10^5 cells were used and absolute number and percentage of neutrophils in the lavages were determined in duplicate independently by two researchers by differential microscopic counting. […] The number of total leukocytes was determined by counting leukocytes in a Neubauer chamber after staining with Turk’s solution. […]
Figure 5 CXCL9(74-93) inhibits CXCL8-induced but not monosodium urate (MSU) crystal-induced neutrophil migration to the knee cavity. […] Simultaneously, 66 µg of CXCL9(74-93) was injected intravenously and 3 h post injection the number of total cells (A) and neutrophils (B) were evaluated by washing the cavity and differentially counting the leukocyte subtypes on May-Grunwald-Giemsa-stained cytospins. […]

[2] = system: MSU crystal-induced neutrophil migration; experiment: MSU crystal-induced gout in mice (neutrophil migration to knee); format: in vivo, mouse (C57BL/6); conditions: 66 µg peptide i.v.; MSU crystals 100 µg, C57BL/6, 3 h, n ≥ 5; Figure 5
Procedure: Monosodium urate crystals were prepared as described previously ([42], [49]) and were injected (100 µg in 10 µl) in the tibiofemoral knee joint of C57Bl/6 mice. A group of mice received CXCL9 peptide or vehicle intravenously and the cells present in the tibiofemoral articulation were harvested 3 h after MSU crystal administration. The total and differential leukocyte counts were determined.
Figure 5 CXCL9(74-93) inhibits CXCL8-induced but not monosodium urate (MSU) crystal-induced neutrophil migration to the knee cavity. CXCL8(1-77) (1 µg) or MSU crystals (100 µg) were injected into the tibiofemoral articulation of C57BL/6 mice (n ≥ 5). Simultaneously, 66 µg of CXCL9(74-93) was injected intravenously and 3 h post injection the number of total cells (A) and neutrophils (B) were evaluated by washing the cavity and differentially counting the leukocyte subtypes on May-Grunwald-Giemsa-stained cytospins. The total numbers of leukocytes and neutrophils are shown for every individual mouse, and the horizontal lines denote the median number of cells. To detect statistically significant differences, the Mann–Whitney U-test was carried out (*p < 0.05; **p < 0.01; ***p < 0.005).

[3] = system: neutrophil adhesion to the endothelium; experiment: CXCL8-induced neutrophil adhesion in the murine cremaster muscle model; format: in vivo, mouse (C57Bl/6J); conditions: 108 µg peptide i.v., Figure 8
Procedure: Mice were anesthetized by intraperitoneal injection of 200 mg/kg ketamine (Bayer Inc. Animal Health) and 10 mg/kg xylazine (Bimeda-MTC). After anesthesia, the right jugular vein was cannulated for maintenance of anesthesia and to permit the delivery of the fluorescence-labeled antibodies. Mice were injected intravenously (via jugular vein) with either saline or CXCL9(74-103) 5 min prior to an intrascrotal injection of 1 or 3 µg CXCL8. The animals were placed on a water-heated operating table to maintain body temperature at ~37°C. The depth of anesthesia was controlled by regularly monitoring peripheral reflexes. The cremaster muscle was prepared as previously described ([50]). […] Single unbranched cremasteric venules with a diameter of ~25–40 μm were selected and their blood flow was recorded during a 5 min period. […] A 512 × 512 pixel back-thinned EMCCD camera (C9100-13, Hamamatsu, Bridgewater, NJ, USA) was used for fluorescence detection. […] Images captured using the spinning disk were processed and analyzed in Volocity 4.20. Periods of 5 min/field of view were recorded at 45, 60, and 90 min after CXCL8 administration. A neutrophil was considered to be adherent if it remained stationary for at least 30 s, and total neutrophil adhesion was quantified as the number of adherent cells within a 100-µm length of venule. […]

[4] = system: CXCL8-induced neutrophil migration; conditions: CXCL8 into tibiofemoral articulation of C57BL/6 mice; cited from earlier work
[5] = system: MSU crystal-induced neutrophil migration; conditions: murine model; cited from earlier work
Description: Because of their essential role for the migration of leukocytes, chemokines and their GPCRs can serve as potential targets for the development of new anti-inflammatory drugs ([24]–[26]). Several neutralizing ligands or antibodies, modified chemokines or small molecules have been developed as antagonists ([27]–[30]). However, only two chemokine receptor antagonists are currently used as therapeutics, namely, Maraviroc (a CCR5 antagonist) and AMD3100 (a CXCR4 antagonist) ([31], [32]). Remarkably, these antagonists are not used as anti-inflammatory drugs, but, respectively, as an inhibitor of hum ...

Row | Substance | neutrophils in the joint upon CXCL8 ([1]; control 13.3 × 10^3) | percentage of neutrophils in the joint upon CXCL8 ([1]; control 60.5%) | inhibition of MSU crystal-induced neutrophil migration to the joint [2] | adherence of neutrophils to the endothelium ([3]; 1 µg CXCL8 intrascrotal) | adherence of neutrophils to the endothelium ([3]; 3 µg CXCL8 intrascrotal) | inhibition of neutrophil chemotactic activity of CXCL8 in the tibiofemoral articulation [4] | inhibition of neutrophil extravasation in MSU crystal-induced gout [5]
1 | 74KKKQKNGKKHQKKKVLKVRK93 [CXCL9(74-93), COOH-terminal peptide of CXCL9 lacking the 10 COOH-terminal amino acids of CXCL9(74-103)] | 0.67 × 10^3 neutrophils | 17.5% | could not inhibit MSU crystal-induced neutrophil migration to the joint |  |  |  | 
2 | 74KKKQKNGKKHQKKKVLKVRKSQRSRQKKTT103 [CXCL9(74-103), COOH-terminal peptide of CXCL9] |  |  |  | reduced the adherence of neutrophils to the endothelium significantly | reduced the adherence of neutrophils to the endothelium significantly | could inhibit the neutrophil chemotactic activity of CXCL8 in vivo | able to inhibit neutrophil extravasation
